Measurements as given in US20100004166A1, “Endothelin and Endothelin Receptor Agonists in the Treatment of Metabolic Diseases” (priority 2007, published 2010).
Entries after “also recorded” stand apart in the source; their conditions may differ. Where a SMILES comes first, the peptide text is derived from it. Bridges are numbered along the chain shown (N, C = ends). Where no end group is shown, it is not given here.

Key:
[1] = Reduction of food intake in fasted mice after i.p. injection of peptide; type: in vivo, NIH/Swiss mice; details: for % Inhibition of FI at 120 mi: food intake (FI) at 120 min, dose not given
Source text: In yet another embodiment, the ET receptor agonist is adenoregulin. See, e.g., Donly et al., Proc. Natl. Acad. Sci. USA 89:10960-963 (1992); Amiche et al., Biochem. Biophys. Res. Comm. 191:983-90 (1993). Known sequences for adenoregulin include Genbank sequences X70278 and X72387. Originally isolated from the skin of the frog Phyllomedusa bicolor, adenoregulin belongs to the family of dermaseptins, a family of antimicrobial peptides. See, e.g., Amiche et al., J. Biol. Chem. 269:17847-52 (1994); Zhou et al., Biotechnol. Lett. 27:725-30 (2005).
Materials & Methods: NIH/Swiss mice were fasted approximately 17 hours prior to initiation of the experiment. Peptides were injected intraperitoneally (i.p.) at time zero using doses as indicated. All mice received an intraperitoneal injection (200 μl) of either vehicle or compounds at doses indicated and were immediately presented with a pre-weighed food pellet. The food pellet was weighed at 30-minute, 1-hr, and 2-hr intervals after presentation to determine the amount of food eaten. Each point reflects n=4 for mice receiving an endothelin or endothelin agonist or n=3 for mice receiving vehicle.
Food intake values reflect, at each time point, effect of test sample on food intake is expressed as % change relative to vehicle using the formula provided below.
% basal=−100*[1−(food intake of treatment group/food intake of vehicle group)].
Significant test sample effects were identified by ANOVA (p<0.05). Where a significant difference exists, test means were compared to the control mean using Dunnett's test. One-way ANOVA with Dunnett's post test was performed using GraphPad Prism® version 3.01 for Windows, GraphPad Software, San Diego, Calif. USA.

[2] = Body weight and body fat in diet induced obese (DIO) mice, continuous s.c. osmotic pump infusion; type: in vivo
Protocol: Materials & Methods: Diet induced obese (DIO) mice were employed. Obesity was induced by feeding a pelleted high-fat diet (58% of calories, #D12331, Research Diets, New Brunswick, N.J.) starting at 4 wk of age (20) for 6 wk (4 wk for the long-term study) prior to treatment. The mice then remained on this diet in powdered form throughout the treatment period unless otherwise noted. All animals were housed under a 12 hr:12 hr light-dark cycle at 21-23° C., and allowed ad libitum access to food pre- and post-treatment. […] (20 nmol/kg/d), or adenoregulin [SEQ ID NO: 33] (300 nmol/kg/d) were administered to DIO mice by Alzet® s.c. osmotic pumps. Mice were fed pelleted high-fat diet, and body weights and food intake were recorded weekly.
Body weight (BWt), at each time point, reflects the effect of test sample on BWt when expressed as % change relative to vehicle treated. For a treatment group:
% BWt loss=100*[(mean BWt change vehicle treated)−(mean BWt change treated)/mean BWt at day 0]
[…]
Significant test sample effects were identified by ANOVA (p<0.05). Where a significant difference exists, test means were compared to the control mean using Dunnett's test. One-way ANOVA with Dunnett's post test was performed using GraphPad Prism® version 3.01 for Windows, GraphPad Software, San Diego Calif.

Compound | % Inhibition of FI at 120 mi [1] [%] | also measured
33 (GLWSKIKEVGKEAAKAAAKAAGKAALGAVSEAV-NH2) [compound 33] | 77.6 | –
35 (GLWSKIKEVGKEAAKAAAKAAGKAALGAVSEA-NH2) [compound 35] | 28.9 | –
36 (GLWSKIKEVGKEAAKAAAKAAGKAALGAVSEAF-NH2) [compound 36] | 92.0 | –
37 (GLWSKIKEVGKEAAKAAAKAAGKAALGAVSEAL-NH2) [compound 37] | 79.0 | –
38 (GLWSKIKEVGKEAAKAAAKAAGKAALGAVSEAI-NH2) [compound 38] | 78.0 | –
39 (GLWSKIKEVGKEAAKAAAKAAGKAALGAVSEAY-NH2) [compound 39] | 61.0 | –
40 (GLWSKIKEVGKEAAKAAAKAAGKAALGAVSEAW-NH2) [compound 40] | 61.0 | –
41 (GLWSKIKEVGKEAAKAAAKAAGKAALGAVSEAA-NH2) [compound 41] | 54.0 | –
42 (GLWSKIKEVGKEAAKAAAKAAGKAALGAVSEAK-NH2) [compound 42] | 48.0 | –
43 (GLWSKIKEVGKEAAKAAAKAAGKAALGAVSEAP-NH2) [compound 43] | 37.0 | –
44 (GLWSKIKEVGKEAAKAAAKAAGKAALGAVSEAR-NH2) [compound 44] | 34.0 | –
45 (GLWSKIKEVGKEAAKAAAKAAGKAALGAVSEAH-NH2) [compound 45] | 23.0 | –
46 (GLWSKIKEVGKEAAKAAAKAAGKAALGAVSEA-NH2) [compound 46] | 17.0 | –
47 (GLWSKIKEVGKEAAKAAAKAAGKAALGAVSEAVGEQ-OH) [compound 47] | 50.0 | –
49 (GLWSKIKEVGKEAAKAAAKAAGKAALGAVSEA-NH2) [compound 49] | 13.5 | –
50 (GLWSAIKEVGKEAAKAAAKAAGKAALGAVSEAV-NH2) [compound 50] | 22.3 | –
51 (GLASKIKEVGKEAAKAAAKAAGKAALGAVSEAV-NH2) [compound 51] | 25.8 | –
52 (ALWSKIKEVGKEAAKAAAKAAGKAALGAVSEAV-NH2) [compound 52] | 32.3 | –

Compound | % Inhibition of FI at 120 mi [1] [%] | also measured
53 (GLWSKIKEVGKEAAKAAAKAAGKAALGAASEAV-NH2) [compound 53] | 33.6 | –
54 (GAWSKIKEVGKEAAKAAAKAAGKAALGAVSEAV-NH2) [compound 54] | 37.3 | –
55 (GLWSKIKEVGKEAAKAAAKAAGKAALGAVSEAA-NH2) [compound 55] | 54.0 | –
56 (GLWAKIKEVGKEAAKAAAKAAGKAALGAVSEAV-NH2) [compound 56] | 71.7 | –
57 (GLWSKIKEVGKEAAKAAAKAAGKAALGAVAEAV-NH2) [compound 57] | 74.8 | –
58 (GLWSKIKEVGKEAAKAAAKAAGKAALGAVSAAV-NH2) [compound 58] | 78.9 | –
59 (ALWKTMLKKLGTMALHAGKAALGAAADTISQGTQ-OH) [compound 59] | 58.0 | –
60 (ALWKTLLKKVGKVAGKAVLNAVTNMANQNEQ; not fully specified (C-terminus); printed as ALWKTLLKKVGKVAGKAVLNAVTNMANQNEQ-OH) [compound 60] | 53.0 | –
61 (ALWMTLLKKVLKAAAKALNAVLVGANA-OH) [compound 61] | 35.0 | –
62 (ALWKTLLKKVLKA-NH2) [compound 62] | 28.2 | –
63 (GMWSKIKNAGKAAAKASKKAAGKAALGAVSEALGEQ-OH) [compound 63] | 50.0 | –
64 (GMWGSLLKGVATVVKHVLPHALSSQQS-OH) [compound 64] | 22.0 | –
CC[C@H](C)[C@H](NC(=O)[C@H](CC(=O)O)NC(=O)[C@H](CC(C)C)NC(=O)[C@H](Cc1cnc[nH]1)NC(=O)[C@@H]1CSSC[C@H](N)C(=O)N[C@@H](CO)C(=O)N[C@H]2CSSC[C@H](NC(=O)[C@H](CCC(=O)O)NC(=O)[C@H](CCCCN)NC(=O)[C@H](CC(=O)O)NC(=O)[C@H](CCSC)NC(=O)[C@H](CC(C)C)NC(=O)[C@H](CO)NC(=O)[C@H](CO)NC2=O)C(=O)N[C@@H](C(C)C)C(=O)N[C@@H](Cc2ccc(O)cc2)C(=O)N[C@@H](Cc2ccccc2)C(=O)N1)C(=O)N[C@H](C(=O)N[C@@H](Cc1c[nH]c2ccccc12)C(=O)O)[C@@H](C)CC [ET-1, reference compound] | – | sickness behavior ([2]; DIO mice, 20 nmol/kg/d continuously infused): without observable sickness behavior; observable negative effects ([1]; fasted mice, i.p.): without observable negative effects
CC[C@H](C)[C@H](NC(=O)[C@H](CC(=O)O)NC(=O)[C@H](CC(C)C)NC(=O)[C@H](Cc1cnc[nH]1)NC(=O)[C@@H]1CSSC[C@H](N)C(=O)N[C@@H](CO)C(=O)N[C@H]2CSSC[C@H](NC(=O)[C@H](CCC(=O)O)NC(=O)[C@H](CCCCN)NC(=O)[C@H](CC(=O)O)NC(=O)[C@H](CC(C)C)NC(=O)[C@H](Cc3c[nH]c4ccccc34)NC(=O)[C@H](CO)NC(=O)[C@H](CO)NC2=O)C(=O)N[C@@H](C(C)C)C(=O)N[C@@H](Cc2ccc(O)cc2)C(=O)N[C@@H](Cc2ccccc2)C(=O)N1)C(=O)N[C@H](C(=O)N[C@@H](Cc1c[nH]c2ccccc12)C(=O)O)[C@@H](C)CC [ET-2, reference compound] (H-CSCSSWLDKECVYFCHLDIIW-OH; disulfide 1-15, 3-11) | – | observable negative effects ([1]; fasted mice, i.p.): without observable negative effects
GLWSKIKEVGKEAAKAAAKAAGKAALGAVSEAV-NH2 [SEQ ID NO 33] | – | body weight ([2]; DIO mice on high fat diet, 300 nmol/kg/d, infused continuously 2-4 weeks (28 days), listed as adenoregulin): sustained weight reducing effect; also recorded: reduction of body weight; body fat ([2]; DIO mice on high fat diet, 300 nmol/kg/d, vs vehicle on high-fat or low-fat diet, listed as adenoregulin): reduction in body fat; also recorded: reduction of body fat; food intake ([1]; rodents, doses estimated to be less than those exerting antibiotic effects): inhibited food intake
N-Succinyl-[Glu^9, Ala^11,15]-Endothelin 1 fragment 8-21 [IRL1620, reference compound] | – | food intake at 30 minutes ([1]; fasted mice, i.p., 30 minutes): reduced food intake; food intake at 60 minutes ([1]; fasted mice, i.p., 60 minutes): reduced food intake; food intake at 120 minutes ([1]; fasted mice, i.p., 120 minutes): no effect
c(CTCNDMTDEECLNFCHQDVIW)-OH [Sarafotoxin S6c, reference compound] | – | reduction in food intake ([1]; fasted mice, peripheral (i.p.) administration, all time points examined (30, 60, 120 min)): dose-dependent reduction in food intake
